In data set [1] the target is T1, HIPK2 (Homo sapiens, UniProt Q9H2X6).
T1 construct: The source of HIPK2 and of all of the other protein kinases used for specificity assays is as described elsewhere
The data set is described as follows: HIPK2 kinase inhibition assay (33P-ATP, peptide […]). The data set is classed as biochemical. The method, then: The source of HIPK2 and of all of the other protein kinases used for specificity assays is as described elsewhere. […] The reaction was stopped by addition of 5 μl of 0.5 M orthophosphoric acid before spotting aliquots onto phosphocellulose filters. Filters were washed in 75 mM phosphoric acid (5-10 ml/each) four times and then once in methanol and dried before counting.

The target of data set [2] is T2, CK2 (Rattus norvegicus, UniProt P19139).
T2 construct: Native CK2 and CK1 were purified from rat liver; from tissue; host or cells: rat liver
T2 sequence (P19139 whole entry): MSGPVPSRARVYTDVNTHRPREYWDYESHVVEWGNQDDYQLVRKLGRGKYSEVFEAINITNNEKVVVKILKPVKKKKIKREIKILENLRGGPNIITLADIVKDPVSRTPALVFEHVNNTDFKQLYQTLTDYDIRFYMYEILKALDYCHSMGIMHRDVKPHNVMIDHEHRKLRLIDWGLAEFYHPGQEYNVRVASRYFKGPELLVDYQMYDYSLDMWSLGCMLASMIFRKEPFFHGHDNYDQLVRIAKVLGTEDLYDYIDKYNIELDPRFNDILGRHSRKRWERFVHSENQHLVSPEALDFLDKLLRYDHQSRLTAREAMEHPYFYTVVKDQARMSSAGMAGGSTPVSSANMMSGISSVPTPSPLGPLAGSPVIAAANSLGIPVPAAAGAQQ
T2 sequence (P67874 whole entry partner): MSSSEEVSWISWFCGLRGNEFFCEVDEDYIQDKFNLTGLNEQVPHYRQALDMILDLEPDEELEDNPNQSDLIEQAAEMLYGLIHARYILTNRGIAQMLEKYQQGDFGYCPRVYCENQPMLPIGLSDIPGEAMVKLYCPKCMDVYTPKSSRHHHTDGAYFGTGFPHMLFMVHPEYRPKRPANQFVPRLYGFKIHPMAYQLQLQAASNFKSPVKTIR
In words: CK2 phosphorylation assay. The data set is classed as biochemical. The following applies: 20 µM ATP. The method, then:
(§1) Native CK2 and CK1 were purified from rat liver.
(§2) PIM1, CK2, CK1 phosphorylation assays were performed following similar procedures used for HIPK2 except that preincubation was omitted. In detail, PIM1 activity was determined at 100 µM ATP concentration and in the presence of 30 µM synthetic peptide substrate […]. CK2 and CK1 activities were assayed in a buffer containing 50 mM Tris/HCl (pH 7.5), 100 mM NaCl, 12 mM MgCl2, 100 µM specific peptide substrate […] (for CK2), or 200 µM […] (for CK1) and 20 µM [γ-^33P]ATP (500–1000 c.p.m./pmol).

Data set [3] has as its system CK1. The data set is described as follows: CK1 phosphorylation assay. It counts as biochemical, rat. Particulars: 20 µM ATP. Here is the method: as §1, §2
The target in data set [4] is T3, PIM1 (Homo sapiens, UniProt P11309).
T3 construct: The source of HIPK2 and of all of the other protein kinases used for specificity assays is as described elsewhere
T3 sequence (P11309 whole entry, species assumed): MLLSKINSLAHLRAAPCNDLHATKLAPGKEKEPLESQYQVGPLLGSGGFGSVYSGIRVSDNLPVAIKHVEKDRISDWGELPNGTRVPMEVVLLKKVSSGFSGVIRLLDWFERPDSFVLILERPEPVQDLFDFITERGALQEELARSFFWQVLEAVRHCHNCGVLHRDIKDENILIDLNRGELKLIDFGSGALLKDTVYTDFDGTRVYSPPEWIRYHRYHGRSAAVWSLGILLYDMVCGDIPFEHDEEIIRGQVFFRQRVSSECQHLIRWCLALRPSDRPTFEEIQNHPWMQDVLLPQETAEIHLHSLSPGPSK
In words: PIM1 phosphorylation assay. The data set is classed as biochemical. Particulars: 100 µM ATP. The method, then:
as §2

For data set [5], the target named is T4, endogenous HIPK2 (Homo sapiens, UniProt Q9H2X6).
T4 construct: endogenous in cells; host or cells: HepG2
T4 sequence (Q9H2X6 whole entry): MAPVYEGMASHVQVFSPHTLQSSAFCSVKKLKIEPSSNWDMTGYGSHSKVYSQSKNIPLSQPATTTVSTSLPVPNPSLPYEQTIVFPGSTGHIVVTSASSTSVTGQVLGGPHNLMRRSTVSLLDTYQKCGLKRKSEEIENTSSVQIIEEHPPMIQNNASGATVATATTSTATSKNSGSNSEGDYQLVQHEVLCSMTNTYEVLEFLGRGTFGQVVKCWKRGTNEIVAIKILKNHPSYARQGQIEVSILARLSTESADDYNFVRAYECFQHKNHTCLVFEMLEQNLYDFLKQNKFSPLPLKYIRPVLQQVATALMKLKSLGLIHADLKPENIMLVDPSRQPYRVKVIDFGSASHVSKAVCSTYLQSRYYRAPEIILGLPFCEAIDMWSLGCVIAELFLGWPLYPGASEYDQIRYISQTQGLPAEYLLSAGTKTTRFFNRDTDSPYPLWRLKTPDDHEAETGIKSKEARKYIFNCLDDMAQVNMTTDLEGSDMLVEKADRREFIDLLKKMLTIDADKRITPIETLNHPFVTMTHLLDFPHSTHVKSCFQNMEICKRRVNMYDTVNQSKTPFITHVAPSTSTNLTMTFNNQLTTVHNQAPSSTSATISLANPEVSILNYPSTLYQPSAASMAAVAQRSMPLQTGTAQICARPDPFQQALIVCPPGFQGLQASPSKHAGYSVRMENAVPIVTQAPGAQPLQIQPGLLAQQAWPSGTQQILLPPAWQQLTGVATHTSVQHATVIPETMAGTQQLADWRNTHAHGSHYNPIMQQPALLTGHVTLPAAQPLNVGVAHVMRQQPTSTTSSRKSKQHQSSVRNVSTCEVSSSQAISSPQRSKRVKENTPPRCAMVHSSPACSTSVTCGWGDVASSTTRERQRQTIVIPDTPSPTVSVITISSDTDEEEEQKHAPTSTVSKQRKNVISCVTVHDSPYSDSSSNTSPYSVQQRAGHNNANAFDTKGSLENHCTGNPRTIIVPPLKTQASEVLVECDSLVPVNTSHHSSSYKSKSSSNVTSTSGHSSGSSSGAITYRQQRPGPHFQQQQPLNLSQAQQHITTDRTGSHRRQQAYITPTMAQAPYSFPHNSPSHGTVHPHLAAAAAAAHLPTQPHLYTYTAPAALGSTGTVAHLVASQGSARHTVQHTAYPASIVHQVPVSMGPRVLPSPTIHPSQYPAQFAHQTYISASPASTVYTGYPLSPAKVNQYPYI
The data set is described as follows: Activity of HIPK2 immunoprecipitated from treated HepG2 cells. It counts as cell-based. The following applies: HepG2 cells, increasing concentrations; immunoprecipitated HIPK2. Here is the method: HepG2 cells (human hepatocellular carcinoma) were cultured in Dulbecco's modified Eagle's medium (DMEM; Sigma) supplemented with 10% fetal calf serum, 2 mM L-glutamine, 100 unit/ml penicillin and 100 µg/ml streptomycin; CEM cells (human T lymphoblastoid cells) were cultured n RPMI-1640 (Sigma) with the same supplements. Cells were cultured in an atmosphere containing 5% CO2, at 37°C. Treatments with TBID were performed in the same medium but with 1% fetal calf serum; control cells were treated with the solvent (DMSO). Total cell lysates were prepared as in [29].
Alternatively, HIPK2 was immunoprecipitated with 2.5 µl anti-HIPK2 (Epitomics) from 350 µg of total lysate proteins deriving from HepG2 cells either treated or not with TBID following a protocol elsewhere described. An aspecific antibody was used as negative control. Immunoprecipitated HIPK2 activity was measured towards the specific peptide substrate ([…]) at 1.6 mM concentration, for 10 min at 30°C, under the same conditions described above for the in vitro kinase assay. Peptide radioactivity was measured after sample spotting on phospho-cellulose paper, washing and scintillation counting, as in [30], while the amount of HIPK2 immunoprecipitated was evaluated by WB.

The subject of data set [6] is panel of 71 protein kinases. Particulars: 1 µM concentration, ref [9]; cited from earlier work.
Data set [7] has as its target T1, HIPK2. On the set-up: method as in PMID 17850214. Particulars: 1 µM concentration; panel of 71 protein kinases; ref [9]; cited from earlier work.
The test system of data set [8] is CK1. The arrangement: method as in PMID 18588507. Particulars: TBB and TBI values; ref [19]; cited from earlier work.
The target in data set [9] is T1, HIPK2. On the set-up: method as in PMID 18588507. Particulars: TBB and TBI values; ref [19]; cited from earlier work.
For data set [10], the target named is T3, PIM1. On the set-up: method as in PMID 18588507. The following applies: TBB and TBI values; ref [19]; cited from earlier work.
Data set [11] deals with T2, CK2. On the set-up: method as in PMID 18588507. The following applies: read-out: IC50 for CK2; TBB and TBI values; ref [19]; cited from earlier work.
Data set [12] relates to 70 PKs. On the set-up: method as in PMID 21513497. The following applies: 10 µM TBI; ref [20]; cited from earlier work.
Data set [13] has as its system 70 PKs. The data set is described as follows: Selectivity parameters (Lorenz curve, Gini coefficient, hit rate) of TBI. The data set is classed as biochemical. The following applies: 10 µM, from data published in ref [19]. Here is the method:
Lorenz curves were derived from the selectivity data. Gini coefficients and hit rates (expressing the percent of kinases inhibited >50% by a given compound) were calculated as described in [25].

pIC50: −log10 of the molar value. Like-named read-outs stand apart in the source and are kept apart here. A value given as a limit tells only on which side of the number the result lay.

T1 sequence (Q9H2X6 whole entry): as above

The pIC50 is the negative decadic logarithm of the IC50, by convention in mol/L. Broadly, the melting point is the temperature, or range, at which the solid turns liquid. `O=C1c2c(Br)c(Br)c(Br)c(Br)c2C(=O)N1c1nccs1` [5b, 4,5,6,7-Tetrabromo-2-(thiazol-2-yl)isoindoline-1,3-dione]: the melting point was 228 to 232 °C. In data set [1] (20 µM ATP, in vitro), this compound had a pIC50 of 6.14. In data set [2], this compound had a negative logarithm of the IC50 (pIC50) of 4.80. This compound showed a pIC50 in [3] of 5.03. The compound further gave a pIC50 in data set [4] of 4.40.

`O=C1c2c(Br)c(Br)c(Br)c(Br)c2C(=O)N1c1nncs1` [5c, 4,5,6,7-Tetrabromo-2-(1,3,4-thiadiazol-2-yl)isoindoline-1,3-dione] yielded a melting point of 310 to 311 °C. The compound further had a pIC50 in [1] (20 µM ATP, in vitro) of 5.59. This compound also gave a pIC50 in data set [2] of 4.62. In data set [3], the negative logarithm of the IC50 (pIC50) is under 4.40. Further, the negative logarithm of the IC50 (pIC50) in data set [4] was under 4.40.

The compound `O=C1c2c(Br)c(Br)c(Br)c(Br)c2C(=O)N1c1ncns1` [5d, 4,5,6,7-Tetrabromo-2-(1,2,4-thiadiazol-5-yl)isoindoline-1,3-dione] showed a melting point of 325 to 326 °C. Besides, the pIC50 in [1] (20 µM ATP, in vitro) is 5.60. The same compound had a pIC50 in [2] of 4.46. In data set [3], this compound gave a pIC50 of under 4.40. The compound further gave a pIC50 in data set [4] of under 4.40.

`O=C1c2c(Br)c(Br)c(Br)c(Br)c2C(=O)N1c1ccn[nH]1` [5e, 4,5,6,7-Tetrabromo-2-(1H-pyrazol-5-yl)isoindoline-1,3-dione]: the melting point was 333 to 334 °C (dec.). Also, the pIC50 in [1] (20 µM ATP, in vitro) is under 4.40. Moreover, in data set [2], the pIC50 is 4.64. This compound had a pIC50 in data set [3] of under 4.40. Moreover, the pIC50 in data set [4] was under 4.40. Besides, the “endogenous HIPK2 activity upon cell treatment” value in [5] was “not”.

In the case of `Cc1cc(N2C(=O)c3c(Br)c(Br)c(Br)c(Br)c3C2=O)[nH]n1` [5f, 4,5,6,7-Tetrabromo-2-(3-methyl-1H-pyrazol-5-yl)isoindoline-1,3-dione], the melting point fell in the range of 331 to 332 °C. In addition, the pIC50 in data set [1] (20 µM ATP, in vitro) is under 4.40. Also, the pIC50 in data set [2] is under 4.40. The pIC50 in [3] is under 4.40. Also, the pIC50 in data set [4] was under 4.40.

The compound `O=C1c2c(Br)c(Br)c(Br)c(Br)c2C(=O)N1c1ncn[nH]1` [5g, 4,5,6,7-Tetrabromo-2-(1H-1,2,4-triazol-5-yl)isoindoline-1,3-dione] returned a melting point of over 360 °C. In addition, the pIC50 in [1] (20 µM ATP, in vitro) was 4.64. In data set [2], this compound had a pIC50 of 4.60. In data set [3], this compound showed a pIC50 of under 4.40. The pIC50 in data set [4] is under 4.40.

Turning to `O=C1c2c(Br)c(Br)c(Br)c(Br)c2C(=O)N1c1ccon1` [5h, 4,5,6,7-Tetrabromo-2-(isoxazol-3-yl)isoindoline-1,3-dione], the melting point is 290 to 293 °C. For the same compound, the pIC50 in [1] (20 µM ATP, in vitro) is 4.63. For the same compound, the pIC50 in data set [2] was under 4.40. This compound also showed a negative logarithm of the IC50 (pIC50) in data set [3] of under 4.40. In [4], the pIC50 was under 4.40.

Take `O=C1c2c(Br)c(Br)c(Br)c(Br)c2C(=O)N1c1cnccn1` [5i, 4,5,6,7-Tetrabromo-2-(pyrazin-2-yl)isoindoline-1,3-dione]: the melting point lay in the range of 272 to 275 °C. For the same compound, the pIC50 in data set [1] (20 µM ATP, in vitro) was 5.44. Besides, in data set [2], the pIC50 was under 4.40. Also, in data set [3], the pIC50 is under 4.40. Besides, the pIC50 in data set [4] is under 4.40.

As to `C[S+]([O-])c1ccc(-c2nc(-c3ccncc3)c(-c3ccc(F)cc3)[nH]2)cc1` (stereo not drawn) [SB203580], the “effect on HIPK2 activity” value in data set [1] (up to 40 µM concentration) was “not appreciably affecting”. In [6], the “number of protein kinases inhibited >60%” value was 6. Also, in data set [7], the “inhibition of HIPK2” value is reported as 14%.

As to `Brc1c(Br)c(Br)c2[nH]nnc2c1Br` [TBB, 4,5,6,7-tetrabromobenzotriazole], the pIC50 in data set [8] is under 4.40; in data set [9], 5.28; in data set [10], 5.98.

In the case of `Brc1c(Br)c(Br)c2[nH]cnc2c1Br` [TBI], the pIC50 in data set [11] is 6.22; in [1] (TBI value given in the text), 6.00; in data set [8] it was 4.82; in [9], 6.15; in data set [10], 6.94. Further, the “number of kinases inhibited >90%” value in data set [12] is 10. The compound also came in with a Gini coefficient in data set [13] of 0.310.

The record behind these values is PMC3933419, “Synthesis and Properties of a Selective Inhibitor of Homeodomain–Interacting Protein Kinase 2 (HIPK2)” (PLoS ONE, 2014).
